From patent publication US10477865B2, “Fungicidal compounds and methods of their use” (Auckland UniServices Limited, priority 2009, dated 2019)

Assays:
[1] = Stability tests (absorbance at 428 nm in different testing solutions); type: physicochemical
Method: Stability was determined by re-suspending between 0.3 to 0.5 mg/mL of purified pigmented compound of Formula (IV) in different testing solutions according to Table 1, and measuring the absorbance at 428 nm every 24 hours for fifteen days. The test samples were kept in glass vials under constant incandescent light (except for the temperature stability test).

[2] = Solubility; type: physicochemical; conditions: in water and polar organic solvents such as methanol, and ethanol
[3] = FRAP (ferric reducing antioxidant power) assay; conditions: compared with ascorbic acid; data not shown
[4] = Phosphomolybdenum antioxidant assay; conditions: compared with ascorbic acid; data not shown
[5] = Radical scavenging ability; conditions: compared with ascorbic acid; data not shown
[6] = test system: B. cinera ICMP16621; assay: Agar diffusion assay, inhibition of mycelial growth; type: cell-based, Botrytis cinera; conditions: HPLC purified; YPD agar, 25° C., 5 days; data not shown
[7] = test system: S. sclerotiorum ICMP13844; assay: as above; type: cell-based, Sclerotinia sclerotiorum; conditions: HPLC purified; YPD agar, 25° C., 5 days; data not shown
[8] = test system: A. supraseptata SVB-F2; assay: as above; type: cell-based, Apiognomonia supraseptata; conditions: HPLC purified; YPD agar, 25° C., 5 days; data not shown
[9] = test system: Candida albicans SC5614; assay: Agar diffusion assay, antimicrobial activity; type: cell-based; conditions: data not shown
[10] = test system: Candida utilis 02/D00981; assay: Agar diffusion assay, antimicrobial activity; type: cell-based; conditions: data not shown
[11] = test system: Saccharomyces cerevisiae BM45; assay: Agar diffusion assay, antimicrobial activity; type: cell-based; conditions: data not shown
[12] = test system: Staphylococcus epidermis SVB-B12; assay: Agar diffusion assay, antimicrobial activity; type: cell-based; conditions: data not shown
[13] = test system: Escherichia coli SVB-B11; assay: Agar diffusion assay, antimicrobial activity; type: cell-based; conditions: data not shown
[14] = test system: Pseudomonas aeruginosa SVB-B10; type: cell-based; conditions: agar diffusion; data not shown
[15] = test system: B. cinera ICMP16621; assay: Inhibition of spore germination; type: cell-based, Botrytis cinera
[16] = test system: S. sclerotiorum ICMP13844; assay: Inhibition of spore germination; type: cell-based, Sclerotinia sclerotiorum
[17] = test system: A. alternata ICMP1099-96; assay: Inhibition of spore germination; type: cell-based, Alternaria alternata
[18] = test system: P. viticola ICMP5537; assay: Inhibition of spore germination; type: cell-based, Phomopsis viticola
[19] = test system: R. solani ICMP11620; type: cell-based, Rhizoctonia solani
[20] = test system: M. grisea ICMP14481; type: cell-based, Magnaporthe grisea
[21] = test system: S. cepivorum ICMP10916-91; assay: Inhibition of spore germination; type: cell-based, Sclerotium cepivorum
[22] = test system: V. inaequalis ICMP4095-96; assay: Inhibition of spore germination; type: cell-based, Venturia inaequalis
[23] = test system: M. graminicola ICMP12504-95; type: cell-based, Mycosphaerella graminicola
[24] = Stability tests (absorbance at 428 nm in different testing solutions); type: physicochemical; conditions: after 10 days
[25] = Stability to common acids: Acetic acid
[26] = Stability to common acids: Malic acid
[27] = Stability to common alkalis: NaHCO3 10% w/w
[28] = Stability to microwave radiation: 5 min, domestic microwave (1000 W)
[29] = Stability to presence of sugars: Sucrose 10% w/w
[30] = Stability to temperature: 4° C. in methanol
[31] = Stability to temperature: 4° C. in water
[32] = Stability to temperature: 60° C. in methanol
[33] = Stability to temperature: 60° C. in water
[34] = Stability to temperature: 100° C. in water
[35] = Stability to temperature: −20° C. in methanol
[36] = Stability to temperature: −20° C. in water
[37] = all three concentrations tested: 2.7, 1.3 and 0.7 mg·mL-1

CCC(C)CC(C)/C=C(/C=C(C)/C=C/C=C/C=C/C=C/C=C/C=C/C1=C(C(=O)O)C2OOC(CO)C(O)C(O1)C2O)C(=O)O (single isomer, unassigned) [Compound 1, Epicoccaene]
Resistance to temperature and microwave radiation [1]: resistant
Initial absorbance (428 nm) [1, 25]: 1.61
Initial absorbance (428 nm) ([1]; Stability to common acids: Citric acid): 1.53
Final absorbance (428 nm) ([1]; Stability to common acids: Citric acid, after 10 days): 0.51
Initial absorbance (428 nm) ([1]; Stability to common acids: Lactic acid): 1.52
Final absorbance (428 nm) ([1]; Stability to common acids: Lactic acid, after 10 days): 0.68
Initial absorbance (428 nm) [1, 26]: 1.53
Initial absorbance (428 nm) ([1]; Stability to common alkalis: Na2CO3 10% w/w): 2.13
Final absorbance (428 nm) ([1]; Stability to common alkalis: Na2CO3 10% w/w, after 10 days): 2.12
Initial absorbance (428 nm) [1, 27]: 2.08
Initial absorbance (428 nm) ([1]; Stability to common alkalis: NaOH 10% w/w): 2.05
Final absorbance (428 nm) ([1]; Stability to common alkalis: NaOH 10% w/w, after 10 days): 2.04
Initial absorbance (428 nm) ([1]; Stability to light: In ethanol 5% v/v): 2.04
Final absorbance (428 nm) ([1]; Stability to light: In ethanol 5% v/v, after 10 days): 2.04
Initial absorbance (428 nm) ([1]; Stability to light: In methanol): 2.04
Final absorbance (428 nm) ([1]; Stability to light: In methanol, after 10 days): 2.04
Initial absorbance (428 nm) ([1]; Stability to light: In water): 2.05
Final absorbance (428 nm) ([1]; Stability to light: In water, after 10 days): 1.82
Final absorbance (428 nm) [1, 28]: 2.04
Initial absorbance (428 nm) [1, 28]: 2.05
Initial absorbance (428 nm) ([1]; Stability to presence of sugars: Dextrose 10% w/w): 2.08
Final absorbance (428 nm) ([1]; Stability to presence of sugars: Dextrose 10% w/w, after 10 days): 2.08
Initial absorbance (428 nm) ([1]; Stability to presence of sugars: Fructose 10% w/w): 2.02
Final absorbance (428 nm) ([1]; Stability to presence of sugars: Fructose 10% w/w, after 10 days): 2.03
Initial absorbance (428 nm) [1, 29]: 2.08
Final absorbance (428 nm) [1, 30]: 2.03
Initial absorbance (428 nm) [1, 30]: 2.05
Final absorbance (428 nm) [1, 31]: 2.06
Initial absorbance (428 nm) [1, 31]: 2.08
Final absorbance (428 nm) [1, 32]: 2.04
Initial absorbance (428 nm) [1, 32]: 2.05
Final absorbance (428 nm) [1, 33]: 2.06
Initial absorbance (428 nm) [1, 33]: 2.08
Final absorbance (428 nm) [1, 34]: 2.07
Initial absorbance (428 nm) [1, 34]: 2.08
Final absorbance (428 nm) [1, 35]: 2.06
Initial absorbance (428 nm) [1, 35]: 2.05
Final absorbance (428 nm) [1, 36]: 2.07
Initial absorbance (428 nm) [1, 36]: 2.08
Stability under acidic conditions ([1]; acidic conditions, colour changes from bright yellow to pale orange): unstable
Light sensitivity ([1]; dissolved in water at neutral pH): moderate light sensitivity
Resistance to light ([1]; in water at pH 8.0 or higher, in methanol or in sugar solutions (10% w/w)): resistance to light increased
Degradation in solution of organic acids ([1]; organic acids (10% w/w)): pronounced degradation
Final absorbance (428 nm) ([1]; pH stability, pH 3, after 10 days, constant incandescent light): 1.45
Initial absorbance (428 nm) ([1]; pH stability, pH 3, constant incandescent light): 1.46
Final absorbance (428 nm) ([1]; pH stability, pH 5, after 10 days, constant incandescent light): 1.67
Initial absorbance (428 nm) ([1]; pH stability, pH 5, constant incandescent light): 1.67
Final absorbance (428 nm) ([1]; pH stability, pH 7, after 10 days, constant incandescent light): 2.05
Initial absorbance (428 nm) ([1]; pH stability, pH 7, constant incandescent light): 2.05
Final absorbance (428 nm) ([1]; pH stability, pH 8, after 10 days, constant incandescent light): 2.08
Initial absorbance (428 nm) ([1]; pH stability, pH 8, constant incandescent light): 2.09
Final absorbance (428 nm) ([1]; pH stability, pH 10, after 10 days, constant incandescent light): 2.09
Initial absorbance (428 nm) ([1]; pH stability, pH 10, constant incandescent light): 2.09
Solubility [2]: readily soluble
Antioxidant power by FRAP [3]: comparable to those of ascorbic acid
Antioxidant power by phosphomolybdenum assay [4]: comparable to those of ascorbic acid
Radical scavenging ability [5]: comparable to those of ascorbic acid
Activity against mycelial growth (zone of inhibition) [6]: strong activity
Activity against mycelial growth (zone of inhibition) [7]: strong activity
Activity against mycelial growth (zone of inhibition) [8]: strong activity
Antimicrobial activity [9]: No antimicrobial activity
Antimicrobial activity [10]: No antimicrobial activity
Antimicrobial activity [11]: No antimicrobial activity
Antimicrobial activity [12]: No antimicrobial activity
Antimicrobial activity [13]: No antimicrobial activity
Antimicrobial activity [14]: No antimicrobial activity
Inhibition of spore germination [15, 37]: completely inhibit
Inhibition of spore germination ([15]; incubation in rich culture medium for 10 days, data not shown): completely inhibit
minimal inhibition dose (MID) ([15]; spore germination): below 0.7 mg/mL
Inhibition of spore germination [16, 37]: completely inhibit
minimal inhibition dose (MID) ([16]; spore germination): below 0.7 mg/mL
Inhibition of spore germination [17, 37]: completely inhibit
minimal inhibition dose (MID) ([17]; spore germination): below 0.7 mg/mL
Inhibition of spore germination [18, 37]: completely inhibit
minimal inhibition dose (MID) ([18]; spore germination): below 0.7 mg/mL
minimal inhibition dose (MID) [19]: below 0.7 mg/mL
Inhibition of spore germination [19, 37]: completely inhibit
Inhibition of spore germination [20, 37]: completely inhibit
minimal inhibition dose (MID) ([20]; spore germination): below 0.7 mg/mL
Inhibition of spore germination [21, 37]: completely inhibit
minimal inhibition dose (MID) ([21]; spore germination): below 0.7 mg/mL
Inhibition of spore germination [22, 37]: completely inhibit
minimal inhibition dose (MID) ([22]; spore germination): below 0.7 mg/mL
Inhibition of spore germination [23]: resistant
Final absorbance (428 nm) [24, 25]: 0.66
Final absorbance (428 nm) [24, 26]: 0.38
Final absorbance (428 nm) [24, 27]: 2.08
Final absorbance (428 nm) [24, 29]: 2.07
